# Measured values taken from patent publication US20200017495A1, “NOVEL HETEROCYCLIC COMPOUNDS AND THEIR USE IN PREVENTING OR TREATING BACTERIAL INFECTIONS” (priority 2017, published 2020).
# Several values for one entry are separate records, joined by “and”; a condition that tells them apart may be missing. Identical values can stand only once. Like-named read-outs stand apart in the source and are kept apart here.
# Tests used:
# [1] = system: Enterobacter cloacae (ECL) isolates; assay: MIC of compounds alone and combined with antibacterials, broth microdilution (CLSI); format: cell-based
# Method in brief: (§1)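 Broth microdilution in cation-adjusted Mueller-Hinton broth, inoculum 5.10^5 CFU/mL, 16-20 h at 35° C in ambient air, on genotyped isolates. Compound MIC, alone or with an antibacterial, taken visually as lowest concentration preventing growth; antibacterial MIC determined at each compound concentration.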
# [2] = system: Escherichia coli (ECO) isolates; assay: as above; format: cell-based
# Method in brief: as §1
structure (smiles),measurement,setting,value
"CC1(C)S[C@@H]2[C@H](NC(=O)[C@H](N)c3ccc(O)cc3)C(=O)N2[C@H]1C(=O)O [AMX, Amoxicillin]",MIC ATB in combination,[1],>128 µg/mL
same,MIC ATB in combination,"[1]; ECL 190408, AF2 @ 8 μg/mL",<=0.25 μg/mL
same,MIC ATB in combination,"[1]; ECL 200322, AF2 @ 8 μg/mL",<0.25 µg/mL
same,MIC ATB in combination,"[1]; ECL 260253, AF2 @ 8 μg/mL",<0.25 µg/mL
same,MIC ATB in combination,"[1]; ECL 260323, AF2 @ 8 μg/mL",<0.25 µg/mL
same,MIC ATB in combination,"[1]; ECL 260508, AF2 @ 8 μg/mL",<0.25 µg/mL
same,MIC ATB in combination,"[1]; ECL P99, CLA @ 4 μg/mL",>512 µg/mL
same,MIC ATB in combination,"[1]; ECL UFR12, AF2 @ 8 μg/mL",<0.25 µg/mL
same,MIC ATB in combination,"[1]; ECL UFR38, AF2 @ 8 μg/mL",<=0.25 μg/mL
same,MIC ATB in combination,"[1]; ECL UFR51, AF2 @ 8 μg/mL",<0.25 µg/mL
same,MIC ATB in combination,"[1]; ECL UFR70, AF2 @ 8 μg/mL",0.5 µg/mL
same,MIC ATB in combination,"[1]; ECL UFR85, AF2 @ 8 μg/mL",<0.25 µg/mL
same,MIC,"[1]; strain ECL 2185D, genotype OXA-163",>256 µg/mL
same,MIC,"[1]; strain ECL 190310, genotype AmpC",>256 µg/mL
same,MIC,"[1]; strain ECL 190408, genotype TEM-1, CTX-M-15, OXA-1",>256 µg/mL
same,MIC,"[1]; strain ECL 200138, genotype AmpC",>256 µg/mL
same,MIC,"[1]; strain ECL 200322, genotype TEM-1, CTX-M-15, OXA-1",>256 µg/mL
same,MIC,"[1]; strain ECL 260033, genotype AmpC",>256 µg/mL
same,MIC,"[1]; strain ECL 260253, genotype TEM-1, KPC-3",>256 µg/mL
same,MIC,"[1]; strain ECL 260323, genotype AmpC",>256 µg/mL
same,MIC,"[1]; strain ECL 260508, genotype TEM-1, CTX-M-15",>256 µg/mL
same,MIC,"[1]; strain ECL HAN, genotype OXA-35",>256 µg/mL
same,MIC,"[1]; strain ECL NEM146383, genotype AmpC",>256 µg/mL
same,MIC,"[1]; strain ECL P99, genotype AmpC",>1024 µg/mL
same,MIC,"[1]; strain ECL UFR12, genotype CTX-M-9, OXA-48",>256 µg/mL
same,MIC,"[1]; strain ECL UFR13, genotype TEM-1, SHV-12, CTX-M-9, OXA-48",>256 µg/mL
same,MIC,"[1]; strain ECL UFR14, genotype TEM-1, SHV-12, CTX-M-15, DHA-1, OXA-1, OXA-48",>256 µg/mL
same,MIC,"[1]; strain ECL UFR38, genotype CTX-M-15, NDM-1",>256 µg/mL
same,MIC,"[1]; strain ECL UFR51, genotype SHV-12, IMP-8",>256 µg/mL
same,MIC,"[1]; strain ECL UFR60, genotype TEM-1, CTX-M-15, KPC-2",>256 µg/mL
same,MIC,"[1]; strain ECL UFR70, genotype TEM-1, CTX-M-15, CMY-2, OXA-1, Porin loss",>256 µg/mL
same,MIC,"[1]; strain ECL UFR84, genotype TEM-1, AmpC, OXA-1",>256 µg/mL
same,MIC,"[1]; strain ECL UFR85, genotype TEM-1, CTX-M-15, AmpC",>256 µg/mL
same,MIC,"[1]; strain ECL UFR192, genotype TEM-1, NDM-1, antibiotic alone",>128 µg/mL
same,MIC,"[1]; strain ECL UFR193, genotype TEM-1, CTX-M-15, OXA-1, NDM-1, RmtC, antibiotic alone",>128 µg/mL
same,MIC,"[1]; strain ECL UFR194, genotype OXA-48",>128 µg/mL
same,MIC,"[1]; strain ECL UFR195, genotype TEM-1, CTX-M-15, OXA-1, OXA-48",>128 µg/mL
same,MIC,"[1]; strain ECL UFR196, genotype TEM-1, CTX-M-15, OXA-1, OXA-48",>128 µg/mL
same,MIC,"[1]; strain ECL UFR197, genotype TEM-1, CTX-M-15, OXA-1, OXA-48",>128 µg/mL
same,MIC,"[1]; strain ECL UFR198, genotype TEM-1, SHV-12, CTX-M-15, DHA-1, OXA-1, OXA-48",>128 µg/mL
same,MIC,"[1]; strain ECL UFR200, genotype TEM-1, SHV-12, KPC-2",>128 µg/mL
same,MIC,"[1]; strain ECL UFR203, genotype TEM-1, SHV-12, VIM-1, antibiotic alone",>128 µg/mL
same,MIC,"[1]; strain ECL UFR214, genotype TEM-1, SHV-31, CTX-M-15, VIM-4, antibiotic alone",>128 µg/mL
same,MIC,"[1]; strain ECL UFR252PT, genotype VIM-2, antibiotic alone",>128 µg/mL
same,MIC ATB in combination,[2],>128 µg/mL and 128 µg/mL
same,MIC ATB in combination,"[2]; ECO 4133, AF2 @ 8 μg/mL",<0.25 µg/mL
same,MIC ATB in combination,"[2]; ECO 5302, AF2 @ 8 μg/mL",<0.25 µg/mL
same,MIC ATB in combination,"[2]; ECO 131119, AF2 @ 8 μg/mL",<0.25 µg/mL
same,MIC ATB in combination,"[2]; ECO 131119, CLA @ 4 μg/mL",>512 µg/mL
same,MIC ATB in combination,"[2]; ECO 180070, AF2 @ 8 μg/mL",<0.25 µg/mL
same,MIC ATB in combination,"[2]; ECO 180070, CLA @ 4 μg/mL",16 µg/mL
same,MIC ATB in combination,"[2]; ECO 190314, AF2 @ 8 μg/mL",<0.25 µg/mL
same,MIC ATB in combination,"[2]; ECO 190314, CLA @ 4 μg/mL",8 µg/mL
same,MIC ATB in combination,"[2]; ECO 190317, AF2 @ 8 μg/mL",<0.25 µg/mL
same,MIC ATB in combination,"[2]; ECO 190317, CLA @ 4 μg/mL",64 µg/mL
same,MIC ATB in combination,"[2]; ECO 190457, AF2 @ 8 μg/mL",<0.25 µg/mL
same,MIC ATB in combination,"[2]; ECO 190549, AF2 @ 8 μg/mL",<0.25 µg/mL
same,MIC ATB in combination,"[2]; ECO 190549, CLA @ 4 μg/mL",8 µg/mL
same,MIC ATB in combination,"[2]; ECO 200159, AF2 @ 8 μg/mL",<0.25 µg/mL
same,MIC ATB in combination,"[2]; ECO 200159, CLA @ 4 μg/mL",8 µg/mL
same,MIC ATB in combination,"[2]; ECO 200259, AF2 @ 8 μg/mL",<0.25 µg/mL
same,MIC ATB in combination,"[2]; ECO 200259, CLA @ 4 μg/mL",8 µg/mL
same,MIC ATB in combination,"[2]; ECO 200344, AF2 @ 8 μg/mL",<0.25 µg/mL
same,MIC ATB in combination,"[2]; ECO 200344, CLA @ 4 μg/mL",16 µg/mL
same,MIC ATB in combination,"[2]; ECO 260096, AF2 @ 8 μg/mL",0.5 µg/mL
same,MIC ATB in combination,"[2]; ECO 260096, CLA @ 4 μg/mL",4 µg/mL
same,MIC ATB in combination,"[2]; ECO 260304, AF2 @ 8 μg/mL",<0.25 µg/mL
same,MIC ATB in combination,"[2]; ECO 260304, CLA @ 4 μg/mL",4 µg/mL
same,MIC ATB in combination,"[2]; ECO 260508, AF2 @ 8 μg/mL",<0.25 µg/mL
same,MIC ATB in combination,"[2]; ECO 260508, CLA @ 4 μg/mL",64 µg/mL
same,MIC ATB in combination,"[2]; ECO RGN238, AF2 @ 8 μg/mL",<0.25 µg/mL
same,MIC ATB in combination,"[2]; ECO UFR15, AF2 @ 8 μg/mL",<0.25 µg/mL
same,MIC ATB in combination,"[2]; ECO UFR16, AF2 @ 8 μg/mL",<0.25 µg/mL
